Experiments:
[1] = system: induced mouse models of atherosclerosis; assay: induced mouse models of atherosclerosis; assay type: in vivo, mice
Excerpt: Inducing atherosclerotic plaque development in mice is disclosed in details in U.S. patent application Ser. No. 12/286,368, which is herein incorporated by reference in its entirety. These mouse models are used for testing tetracycline-acenocoumorol conjugate to determine their efficacy both on reducing progression of plaque development and symptoms of chronic inflammation. Mice purchased from vendors are used for in vivo atherosclerotic plaque development by multiple doses of plaque complexes by intra-peritoneal and intravenous routes as described U.S. patent application Ser. No. 12/286,368. […] Ovastatin, an established anti-atherosclerotic drug (Schwartz et al, 2001) is used for control purposes in these studies and administered by oral route.
Ovastatin, tetracycline, clopidogrel or any anti-coagulant individually and tetracycline-clopidogrel (0.1-5 mg/kg per day) are orally administrated to the symptomatic and asymptomatic atherosclerotic mice models for 8 to 12 weeks. Following administration of the drugs, mice with asymptomatic plaque development are euthanized and blood collected via cardiac puncture. The blood samples will be used test clotting or blood coagulation test to analyse anti-coagulation efficacy of drugs used.

[2] = doses between 12.5 and 300 mg twice daily; cited from earlier work

Row | Structure (SMILES) | plaque accumulation, histochemical analysis of heart tissues ([1]; asymptomatic mice model, after treatment) | symptoms of plaque inflammation ([1]; mice with plaque induced chronic inflammation, compared to control animal without treatment) | safety profile [2]
1 | CC[C@H](C)C(=O)O[C@H]1C[C@@H](C)C=C2C=C[C@H](C)[C@H](CC[C@@H]3C[C@@H](O)CC(=O)O3)[C@H]21 [ovastatin] | reduced plaque accumulation | reduced symptoms of plaque inflammation | –
2 | [H]/N=C(/N)c1ccc(NCc2nc3cc(C(=O)N(CCC(=O)O)c4ccccn4)ccc3n2C)cc1 [dabigatran] | – | – | good safety profile

— patent US20100292183A1, “TETRACYCLINE AND USES THEREOF” (priority 2009, published 2010)
